Source: PubChem BioAssay (NCI)
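Method: 48-hour compound exposure of cells in 96-well plates, five concentrations, linear interpolation of endpoints. The concentration for 50% growth inhibition is given as GI50. Definition used: TGI = concentration required for complete inhibition of growth.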

Legend:
Assay in all cases: growth of human tumour cells (NCI), 48 h
786-0 renal = test system: 786-0 renal
A498 renal = test system: A498 renal
A549 NSCLC = test system: A549 NSCLC
ACHN renal = test system: ACHN renal
BT-549 breast = test system: BT-549 breast
CAKI-1 renal = test system: CAKI-1 renal
CCRF-CEM leukemia = test system: CCRF-CEM leukemia
COLO 205 colon = test system: COLO 205 colon
DU-145 prostate = test system: DU-145 prostate
EKVX NSCLC = test system: EKVX NSCLC
HCT-116 colon = test system: HCT-116 colon
HCT-15 colon = test system: HCT-15 colon
HOP-62 NSCLC = test system: HOP-62 NSCLC
HOP-92 NSCLC = test system: HOP-92 NSCLC
HS 578T breast = test system: HS 578T breast
HT29 colon = test system: HT29 colon
IGROV1 ovarian = test system: IGROV1 ovarian
K-562 leukemia = test system: K-562 leukemia
KM12 colon = test system: KM12 colon
LOX IMVI melanoma = test system: LOX IMVI melanoma
M14 melanoma = test system: M14 melanoma
MALME-3M melanoma = test system: MALME-3M melanoma
MCF7 breast = test system: MCF7 breast
MDA-MB-231 breast = test system: MDA-MB-231 breast
MDA-MB-435 = test system: MDA-MB-435
MOLT-4 leukemia = test system: MOLT-4 leukemia
NCI-H23 lung = test system: NCI-H23 lung
NCI-H460 lung = test system: NCI-H460 lung
NCI-H522 lung = test system: NCI-H522 lung
NCI/ADR-RES ovarian = test system: NCI/ADR-RES ovarian
OVCAR-3 ovarian = test system: OVCAR-3 ovarian
OVCAR-4 ovarian = test system: OVCAR-4 ovarian
OVCAR-5 ovarian = test system: OVCAR-5 ovarian
OVCAR-8 ovarian = test system: OVCAR-8 ovarian
PC-3 prostate = test system: PC-3 prostate
RPMI-8226 leukemia = test system: RPMI-8226 leukemia
RXF 393 renal = test system: RXF 393 renal
SF-268 CNS = test system: SF-268 CNS
SF-295 CNS = test system: SF-295 CNS
SF-539 CNS = test system: SF-539 CNS
SK-MEL-2 melanoma = test system: SK-MEL-2 melanoma
SK-MEL-28 melanoma = test system: SK-MEL-28 melanoma
SK-MEL-5 melanoma = test system: SK-MEL-5 melanoma
SK-OV-3 ovarian = test system: SK-OV-3 ovarian
SN12C renal = test system: SN12C renal
SNB-19 CNS = test system: SNB-19 CNS
SR leukemia = test system: SR leukemia
SW-620 colon = test system: SW-620 colon
T-47D breast = test system: T-47D breast
TK-10 renal = test system: TK-10 renal
U251 CNS = test system: U251 CNS
UACC-257 melanoma = test system: UACC-257 melanoma
UACC-62 melanoma = test system: UACC-62 melanoma
UO-31 renal = test system: UO-31 renal

Q: Which results are given for `C=C(C(=O)OC)[C@@H]1CC2OC1C(=O)C(C)CCC/C(C)=C/CC[C@@]2(C)O` (stereo partly drawn)?
A: GI50 (786-0 renal): 15.2 µM; TGI (786-0 renal): 31.5 µM; GI50 (A498 renal): 37.2 µM; TGI (A498 renal): 96.8 µM; GI50 (A549 NSCLC): 20.1 µM; TGI (A549 NSCLC): 46 µM; GI50 (ACHN renal): 18.6 µM; TGI (ACHN renal): 42.6 µM; GI50 (BT-549 breast): 25.2 µM; TGI (BT-549 breast): 55.7 µM; GI50 (CAKI-1 renal): 11.4 µM; TGI (CAKI-1 renal): 27.6 µM; GI50 (CCRF-CEM leukemia): 11 µM; TGI (CCRF-CEM leukemia): 36.1 µM; GI50 (COLO 205 colon): 25.1 µM; TGI (COLO 205 colon): 78.7 µM; GI50 (DU-145 prostate): 15 µM; TGI (DU-145 prostate): 28.2 µM; GI50 (EKVX NSCLC): 63.2 µM; TGI (EKVX NSCLC): > 100 µM; GI50 (HCT-116 colon): 13.4 µM; TGI (HCT-116 colon): 26.2 µM; GI50 (HCT-15 colon): 29.1 µM; TGI (HCT-15 colon): > 100 µM; GI50 (HOP-62 NSCLC): 20.6 µM; TGI (HOP-62 NSCLC): 41.2 µM; GI50 (HOP-92 NSCLC): 23.8 µM; TGI (HOP-92 NSCLC): 95.2 µM; GI50 (HS 578T breast): 36.9 µM; TGI (HS 578T breast): > 100 µM; GI50 (HT29 colon): 36.5 µM; TGI (HT29 colon): > 100 µM; GI50 (IGROV1 ovarian): 11.3 µM; TGI (IGROV1 ovarian): 25.4 µM; GI50 (K-562 leukemia): 18.9 µM; TGI (K-562 leukemia): 43.4 µM; GI50 (KM12 colon): 23.8 µM; TGI (KM12 colon): > 100 µM; GI50 (LOX IMVI melanoma): 20.2 µM; TGI (LOX IMVI melanoma): 57.2 µM; GI50 (M14 melanoma): 15.8 µM; TGI (M14 melanoma): 29.2 µM; GI50 (MALME-3M melanoma): 10.9 µM; TGI (MALME-3M melanoma): 31.1 µM; GI50 (MCF7 breast): 43.5 µM; TGI (MCF7 breast): > 100 µM; GI50 (MDA-MB-231 breast): 28.3 µM; TGI (MDA-MB-231 breast): 68 µM; GI50 (MDA-MB-435): 25.9 µM; TGI (MDA-MB-435): 79.4 µM; GI50 (MOLT-4 leukemia): 17.2 µM; TGI (MOLT-4 leukemia): 54.5 µM; GI50 (NCI-H23 lung): 14 µM; TGI (NCI-H23 lung): 27.9 µM; GI50 (NCI-H460 lung): 50.5 µM; TGI (NCI-H460 lung): > 100 µM; GI50 (NCI-H522 lung): 19.1 µM; TGI (NCI-H522 lung): 48.4 µM; GI50 (NCI/ADR-RES ovarian): 28.8 µM; TGI (NCI/ADR-RES ovarian): 86.4 µM; GI50 (OVCAR-3 ovarian): 15.9 µM; TGI (OVCAR-3 ovarian): 48.4 µM; GI50 (OVCAR-4 ovarian): 37.9 µM; TGI (OVCAR-4 ovarian): > 100 µM; GI50 (OVCAR-5 ovarian): 76.7 µM; TGI (OVCAR-5 ovarian): > 100 µM; GI50 (OVCAR-8 ovarian): 28.1 µM; TGI (OVCAR-8 ovarian): 93.6 µM; GI50 (PC-3 prostate): 36.8 µM; TGI (PC-3 prostate): > 100 µM; GI50 (RPMI-8226 leukemia): 16.8 µM; TGI (RPMI-8226 leukemia): 61.2 µM; GI50 (RXF 393 renal): 18 µM; TGI (RXF 393 renal): 36.4 µM; GI50 (SF-268 CNS): 39.4 µM; TGI (SF-268 CNS): > 100 µM; GI50 (SF-295 CNS): 39.5 µM; TGI (SF-295 CNS): > 100 µM; GI50 (SF-539 CNS): 18.4 µM; TGI (SF-539 CNS): 36.4 µM; GI50 (SK-MEL-2 melanoma): 37.8 µM; TGI (SK-MEL-2 melanoma): > 100 µM; GI50 (SK-MEL-28 melanoma): 25.5 µM; TGI (SK-MEL-28 melanoma): 77.3 µM; GI50 (SK-MEL-5 melanoma): 37 µM; TGI (SK-MEL-5 melanoma): > 100 µM; GI50 (SK-OV-3 ovarian): > 100 µM; TGI (SK-OV-3 ovarian): > 100 µM; GI50 (SN12C renal): 31.3 µM; TGI (SN12C renal): 91.5 µM; GI50 (SNB-19 CNS): > 100 µM; TGI (SNB-19 CNS): > 100 µM; GI50 (SR leukemia): 5.1 µM; TGI (SR leukemia): 25.1 µM; GI50 (SW-620 colon): 15 µM; TGI (SW-620 colon): 30.1 µM; GI50 (T-47D breast): 59.8 µM; TGI (T-47D breast): > 100 µM; GI50 (TK-10 renal): 20.8 µM; TGI (TK-10 renal): 71.1 µM; GI50 (U251 CNS): 36.7 µM; TGI (U251 CNS): > 100 µM; GI50 (UACC-257 melanoma): 23.3 µM; TGI (UACC-257 melanoma): 76.3 µM; GI50 (UACC-62 melanoma): 26.1 µM; TGI (UACC-62 melanoma): 74.9 µM; GI50 (UO-31 renal): 16.4 µM; TGI (UO-31 renal): 31.2 µM
